How the values were obtained:
in vivo = assay: in vivo; parameters: species or system Swiss albino mice; details: mouse; for tissue uptake at 0.5 h / tissue uptake at 1 h / tissue uptake at 4 h / tissue uptake at 48 h / tissue uptake at 72 h / tissue uptake at 24 h: Swiss albino, iv, 10 pmol peptide, total radioactivity, %ID/g tissue
Procedure: Samples of blood and tissues of interest were excised, weighted and counted for radioactivity in the gamma counter (automated well-type multi-sample gamma counter; NaI(Tl) 3'' crystal, Canberra Packard Auto-Gamma 5000 series instrument). Data was calculated as percent injected dose per gramtissue (%ID/g) with the aid of suitable standards of the injected dose. Statistical analysis using the unpaired two-tailed Student's t-test was performed to compare values between A431-CCK2R(+) and A431-CCK2R(-) tumours, as well as kidney, stomach and A431-CCK2R(+) tumour values between 4 h control and gelofusine-treated animal groups; values P < 0.05 were considered statistically significant (Table 2). The pharmacokinetic profile was determined by fitting an exponential curve through the organ time-activity data according to the least-squares method. The number of exponentials in the fitted curve was analysed according to the […] Information Criterion (AICc). All fitting was performed with Graphpad Prism version 5.

A431-CCK2R(±) xenografts = assay: in vivo; parameters: species or system SCID mice; details: SCID, mouse, iv, 10 pmol peptide, 4 h
Procedure: The human epidermoid A431 cell line transfected to stably express the CCK2R (A431-CCK2R(+)) or devoid of CCK2R expression (A431-CCK2R(−)) used for tumour induction in this work was a gift from Prof. O. Boerman (Department of Nuclear Medicine, Radboud University Nijmegen Medical Centre, Nijmegen, The Netherlands) and Prof. L. Aloj (Istituto di Biostrutture e Bioimmagini, Consiglio Nazionale delle Ricerche, Naples, Italy) and cells were cultured as previously reported ([Aloj et al., 2004]). Suspensions of freshly harvested A431-CCK2R(±) cells (~150 μL, 1.6 × 10^7/1.4 × 10^7) in normal saline were subcutaneously injected in the flanks of mice.
Animals were euthanized in groups of four at 1 h, 4 h and 24 h pi; in a separate 4-h group animals received gelofusine (100 μL) together with the radioligand. […] Mice were dissected and samples of blood and tissues of interest as well as tumours were excised, weighted and counted for radioactivity in the gamma counter. Data was calculated as percent injected dose per gram tissue (%ID/g) with the aid of suitable standards of the injected dose and represent mean ± SD. In all above experiments, analysis of the solution used in the biodistribution experiment was conducted prior to and after completion of all animal injections.
Statistical analysis using the unpaired two-tailed Student’s t-test was performed to compare values between A431-CCK2R(+) and A431-CCK2R(−) tumours, as well as kidney, stomach and A431-CCK2R(+) tumour values between 4 h control and gelofusine-treated animal groups; values P < 0.05 were considered statistically significant (Table 2). The pharmacokinetic profile was determined by fitting an exponential curve through the organ time-activity data according to the least-squares method. The number of exponentials in the fitted curve was analysed according to the Aikake Information Criterion (AICc). All fitting was performed with Graphpad Prism version 5.

[1] = parameters: species or system humans
Procedure: Clearance kinetics in each organ was determined by exponential curve fitting. The time-integrated activity concentration (TIAC) was obtained by integration of this exponential curve folded with the decay curve of ^111In and ^177Lu.Mouse dosimetry was calculated for both ^177Lu and ^111In using the TIAC and the 25 g RADAR mouse absorbed dose rates per unit activity S for each source and target organ combination ([Keenan et al., 2010]; [Konijnenberg et al., 2014]).
Extrapolation of biodistribution uptake data in mice to humans was based on two options for interspecies scaling ([Stabin, 2008]). 1. (%IA/organ)human=[(%IA/g)mouse×Mmouse(kg)]×(m(g)/M(kg))human with m the organ mass and M the total body weight of mouse or human and with %IA/gand%IA/organ the percentage of the injected activity concentration and per organ, respectively. The mouse organ TIACs are multiplied with the ratio of mouse and human body weights Mmouse/Mhuman to obtain the extrapolated human TIAC, and this multiplied with the organ mass (from the MIRD standard man phantom) yields the residence time in each source organ. 2. (%IA/organ)human=(%IA/organ)mouse=(%IA/g)mouse×mmouse in this method the uptake per organ is extrapolated one-to-one from mouse to man. The extrapolated human residence time is obtained by multiplying the mouse TIAC or each source organ with its mouse organ mass. […]

Molecule `CSCC[C@H](NC(=O)[C@H](Cc1c[nH]c2ccccc12)NC(=O)CNC(=O)[C@H](Cc1ccc(O)cc1)NC(=O)[C@H](C)NC(=O)[C@@H](CCC(=O)O)NC(=O)[C@@H](CCC(=O)O)NC(=O)[C@@H](CCC(=O)O)NC(=O)[C@@H](CCC(=O)O)NC(=O)[C@@H](CCC(=O)O)NC(=O)[C@@H](CCC(=O)O)NC(=O)CN1CCN(CC(=O)O)CCN(CC(=O)O)CCN(CC(=O)O)CC1)C(=O)N[C@@H](CC(=O)O)C(=O)N[C@@H](Cc1ccccc1)C(N)=O` [^111In-CP04, ^111In-DOTA-(DGlu)6-Ala-Tyr-Gly-Trp-Met-Asp-Phe-NH2, metal not drawn] has a tissue uptake at 0.5 h (in vivo; Blood) of 1.74 ± 0.22 %ID/g, a tissue uptake at 1 h (in vivo; Blood) of 0.51 ± 0.14 %ID/g and a tissue uptake at 4 h (in vivo; Blood) of 0.02 ± 0.01 %ID/g. It also gave a tissue uptake at 48 h (in vivo; Blood) of 0.01 ± 0.01 %ID/g, a tissue uptake at 72 h (in vivo; Blood) of 0.01 ± 0.01 %ID/g and a tissue uptake at 0.5 h (in vivo; Femur) of 4.62 ± 1.24 %ID/g. The tissue uptake at 1 h (in vivo; Femur) was 2.62 ± 0.42 %ID/g, the tissue uptake at 4 h (in vivo; Femur) was 0.96 ± 0.18 %ID/g and the tissue uptake at 24 h (in vivo; Femur) was 0.53 ± 0.04 %ID/g. It also gave a tissue uptake at 48 h (in vivo; Femur) of 0.55 ± 0.11 %ID/g, a tissue uptake at 72 h (in vivo; Femur) of 0.49 ± 0.06 %ID/g and a tissue uptake at 0.5 h (in vivo; Heart) of 0.7 ± 0.1 %ID/g. For the same molecule, the tissue uptake at 4 h (in vivo; Heart) was 0.03 ± 0.01 %ID/g, the tissue uptake at 24 h (in vivo; Heart) was 0.02 ± 0.01 %ID/g and the tissue uptake at 48 h (in vivo; Heart) was 0.02 ± 0.01 %ID/g. The tissue uptake at 72 h (in vivo; Heart) was 0.03 ± 0.02 %ID/g, the tissue uptake at 0.5 h (in vivo; Intestines) was 0.82 ± 0.14 %ID/g and the tissue uptake at 1 h (in vivo; Intestines) was 0.39 ± 0.12 %ID/g. The tissue uptake at 4 h (in vivo; Intestines) was 1.05 ± 0.35 %ID/g, the tissue uptake at 48 h (in vivo; Intestines) was 0.08 ± 0.02 %ID/g and the tissue uptake at 72 h (in vivo; Intestines) was 0.09 ± 0.04 %ID/g. For the same molecule, the tissue uptake at 0.5 h (in vivo; Kidneys) was 9.8 ± 2.07 %ID/g, the tissue uptake at 1 h (in vivo; Kidneys) was 8.84 ± 2.05 %ID/g and the tissue uptake at 4 h (in vivo; Kidneys) was 7.9 ± 1.98 %ID/g. It also gave a tissue uptake at 24 h (in vivo; Kidneys) of 3.61 ± 0.31 %ID/g, a tissue uptake at 48 h (in vivo; Kidneys) of 2.81 ± 0.63 %ID/g and a tissue uptake at 72 h (in vivo; Kidneys) of 2.62 ± 0.24 %ID/g. The tissue uptake at 0.5 h (in vivo; Liver) was 0.77 ± 0.11 %ID/g, the tissue uptake at 1 h (in vivo; Liver) was 0.32 ± 0.15 %ID/g and the tissue uptake at 24 h (in vivo; Liver) was 0.06 ± 0.01 %ID/g. For the same molecule, the tissue uptake at 48 h (in vivo; Liver) was 0.06 %ID/g, the tissue uptake at 72 h (in vivo; Liver) was 0.05 ± 0.01 %ID/g and the tissue uptake at 0.5 h (in vivo; Lung) was 1.05 ± 0.1 %ID/g. The tissue uptake at 1 h (in vivo; Lung) was 0.4 ± 0.1 %ID/g, the tissue uptake at 4 h (in vivo; Lung) was 0.06 ± 0.01 %ID/g and the tissue uptake at 24 h (in vivo; Lung) was 0.03 ± 0.01 %ID/g. For the same molecule, the tissue uptake at 48 h (in vivo; Lung) was 0.02 ± 0.01 %ID/g, the tissue uptake at 72 h (in vivo; Lung) was 0.03 ± 0.01 %ID/g and the tissue uptake at 0.5 h (in vivo; Muscle) was 0.59 ± 0.1 %ID/g. It also gave a tissue uptake at 4 h (in vivo; Muscle) of 0.04 ± 0.02 %ID/g, a tissue uptake at 24 h (in vivo; Muscle) of 0.02 ± 0.01 %ID/g and a tissue uptake at 48 h (in vivo; Muscle) of 0.03 ± 0.02 %ID/g. It also gave a tissue uptake at 72 h (in vivo; Muscle) of 0.03 ± 0.02 %ID/g, a tissue uptake at 0.5 h (in vivo; Pancreas) of 0.67 ± 0.08 %ID/g and a tissue uptake at 4 h (in vivo; Pancreas) of 0.1 ± 0.01 %ID/g. For the same molecule, the tissue uptake at 24 h (in vivo; Pancreas) was 0.05 ± 0.01 %ID/g, the tissue uptake at 48 h (in vivo; Pancreas) was 0.04 ± 0.01 %ID/g and the tissue uptake at 72 h (in vivo; Pancreas) was 0.06 ± 0.03 %ID/g. It also gave a tissue uptake at 0.5 h (in vivo; Spleen) of 0.36 ± 0.04 %ID/g, a tissue uptake at 4 h (in vivo; Spleen) of 0.05 ± 0.01 %ID/g and a tissue uptake at 24 h (in vivo; Spleen) of 0.04 ± 0.01 %ID/g. It also gave a tissue uptake at 48 h (in vivo; Spleen) of 0.03 ± 0.01 %ID/g, a tissue uptake at 72 h (in vivo; Spleen) of 0.04 ± 0.01 %ID/g and a tissue uptake at 0.5 h (in vivo; Stomach) of 4.88 ± 0.85 %ID/g. For the same molecule, the tissue uptake at 1 h (in vivo; Stomach) was 2.99 ± 0.55 %ID/g, the tissue uptake at 4 h (in vivo; Stomach) was 2.61 ± 0.82 %ID/g and the tissue uptake at 24 h (in vivo; Stomach) was 1.48 ± 0.55 %ID/g. The tissue uptake at 48 h (in vivo; Stomach) was 1.26 ± 0.26 %ID/g, the tissue uptake at 72 h (in vivo; Stomach) was 0.92 ± 0.04 %ID/g and the gastrointestinal tract clearance (in vivo) was 2.5%. For the same molecule, the “total body clearance T1/2, fast component (90%)” value (in vivo) was 17 min, the “total body clearance, fraction of fast component” value (in vivo) was 90% and the “total body clearance, fraction of slow component” value (in vivo) was 10%. The “%ID/g tissue, Intestines” value (A431-CCK2R(±) xenografts) was 0.29 ± 0.18 %ID/g, the “%ID/g tissue, Kidneys” value (A431-CCK2R(±) xenografts) was 6.52 %ID/g and the “%ID/g tissue, Liver” value (A431-CCK2R(±) xenografts) was 0.12 ± 0.02 %ID/g. The “%ID/g tissue, Stomach” value (A431-CCK2R(±) xenografts) was 1.63 ± 0.20 %ID/g, the “%ID/g tissue, Tumour(+) (A431-CCK2R(+))” value (A431-CCK2R(±) xenografts) was 8.49 %ID/g and the “calculated absorbed dose for kidneys” value [1] was 27.5 mGy/220 MBq. The “expected whole body radiation dose (effective dose)” value [1] was 9.9 mSv.

Source: publication PMC4948680 (European journal of pharmaceutical sciences : official …, 2016)
